The subject of series [1] is panel of 114 enzyme and receptor binding assays. The series is described as follows: Off-target panel of 114 enzyme and receptor-binding assays. To be noted: for Off-target activity: 10 μM, panel of 114 assays; for IC50: tested at 10 µM, 114 assays, read-out: IC50 in all off-target assays. How it is done: MK-8527 and MK-8527-TP were evaluated at 10 µM final concentration at Eurofins Panlabs (Taipei, Taiwan) for activity against a panel of 114 enzyme, radioligand binding, and cellular assays, including 70 G-protein coupled receptor, 13 ion channel, 7 kinase, 7 nuclear hormone receptor, 6 transporter, 4 protease, 2 neurotransmitter metabolism, 2 lipid metabolism, 2 oxidoreductase, and 1 phosphodiesterase assays.

Series [2] can be described thus: Uptake and phosphorylation assay in PBMCs. Type of series: in vitro ADME, human. The conditions noted are these: PBMCs incubated with 0.21 nM MK-8527. Here is the method:
To determine the amount of MK-8527 phosphorylated forms produced after treatment of PBMCs, uptake and phosphorylation assays were performed. PBMCs were activated with 5 µg/mL PHA in RPMI 1640, 10% FBS, 100 units/mL penicillin, and 100 µg/mL streptomycin at 1.2 × 10^6 cells/mL. All incubations were in a humidified incubator at 37 °C and with 5% CO2. After 3–4 days in culture, media containing PHA were removed by centrifugation at 300g for 10 min. Cells were resuspended at 2 × 10^6 cells/mL in RPMI 1,640, 10% NHS, 100 units/mL penicillin, 100 µg/mL streptomycin, and 20 units/mL IL-2. A total of 7.5 × 10^6 to 2 × 10^7 cells were transferred to a miniature bioreactor tube. […]
The intracellular concentration of MK-8527-TP was determined by an LC–MS/MS assay. […] Quantification was performed by monitoring the transitions of m/z 548.9 to 169.1 for MK-8527-TP. […] The method’s lower limit of quantification was between 1 and 5 nM depending on the assay volumes of cell suspension. Analyte concentrations in cell samples across species were determined from the standard curves using linear regression with 1/×2 weighting.
Concentrations of intracellular phosphorylated forms were expressed in picomoles per 10^6 cells by using the molar concentration of each compound as determined by LC–MS/MS and the number of viable cells included in each 100-µL sample.

The structures appear in SMILES notation.

As a reminder, the IC50 is the concentration at which inhibition is half-maximal. Consider `C#C[C@]1(COP(=O)(O)OP(=O)(O)OP(=O)(O)O)O[C@@H](n2ccc3c(N)nc(Cl)nc32)C[C@@H]1O` [MK-8527-TP], for which, in series [1], the Off-target activity entry was “no off-target activities” and the IC50 is greater than 10 µM. The “Intracellular MK-8527-TP level by LC–MS/MS” value in series [2] is on record as “below the limit of quantitation”.
In the case of `C#C[C@]1(CO)O[C@@H](n2ccc3c(N)nc(Cl)nc32)C[C@@H]1O` [Compound 12, (2R,3S,5R)-5-(4-amino-2-chloro-7H-pyrrolo[2,3-d]pyrimidin-7-yl)-2-ethynyl-2-(hydroxymethyl)tetrahydrofuran-3-ol], in series [1], the Off-target activity result is “no off-target activities” and the IC50 is greater than 10 µM.

These data come from publication PMC12380353, “MK-8527 is a novel inhibitor of HIV-1 reverse transcriptase translocation with potential for extended-duration dosing” (PLOS Biology, 2025).
